Consider seven compounds from US9822099B2, “Triazole derivatives” (priority 2013, dated 2017).

Where two headings read alike, the source gives them in different places. Marks after values point to notes of the source that are not given here.

In one data set the test system is Botrytis cinerea. The data set can be described thus: Example A: in vivo preventive test on Botrytis cinerea (grey mould). As to conditions: gherkin plants, preventive spray, evaluated 4 to 5 days after inoculation. Here is the method: The young plants of gherkin are treated by spraying the active ingredient prepared as described above. Control plants are treated only with an aqueous solution of acetone/Dimethyl sulfoxide/Tween®. After 24 hours, the plants are contaminated by spraying the leaves with an aqueous suspension of Botrytis cinerea spores.

In the next data set the test system is Puccinia recondita. The data set can be described thus: Example B: in vivo preventive test on Puccinia recondita (brown rust on wheat). As to conditions: wheat plants, preventive spray, evaluated 11 days after inoculation. Here is the method:
The young plants of wheat are treated by spraying the active ingredient prepared as described above. Control plants are treated only with an aqueous solution of acetone/Dimethyl sulfoxide/Tween®. After 24 hours, the plants are contaminated by spraying the leaves with an aqueous suspension of Puccinia recondita spores.

A further data set deals with Pyrenophora teres. The experiment in a line: Example C: in vivo preventive test on Pyrenophora teres (net blotch on barley). As to conditions: barley plants, preventive spray, evaluated 14 days after inoculation. Here is the method: The young plants of barley are treated by spraying the active ingredient prepared as described above. Control plants are treated only with an aqueous solution of acetone/Dimethyl sulfoxide/Tween®. After 24 hours, the plants are contaminated by spraying the leaves with an aqueous suspension of Pyrenophora teres spores.

The next data set relates to Septoria tritici. The experiment in a line: Example D: in vivo preventive test on Septoria tritici (leaf spot on wheat). As to conditions: wheat plants, preventive spray, evaluated 24 days after inoculation. On the procedure:
The young plants of wheat are treated by spraying the active ingredient prepared as described above. Control plants are treated only with an aqueous solution of acetone/Dimethyl sulfoxide/Tween®. After 24 hours, the plants are contaminated by spraying the leaves with an aqueous suspension of Septoria tritici spores.

Another data set relates to Sphaerotheca fuliginea. The experiment in a line: Example E: in vivo preventive test on Sphaerotheca fuliginea (powdery mildew on cucurbits). As to conditions: gherkin plants, preventive spray, evaluated 15 days after inoculation. Here is the method: The young plants of gherkin are treated by spraying the active ingredient prepared as described above. Control plants are treated only with an aqueous solution of acetone/Dimethyl sulfoxide/Tween®. After 24 hours, the plants are contaminated by spraying the leaves with an aqueous suspension of Sphaerotheca fuliginea spores.

The test system of a further data set is Uromyces appendiculatus. The data set can be described thus: Example F: in vivo preventive test on Uromyces appendiculatus (bean rust). As to conditions: bean plants, preventive spray, evaluated 11 days after inoculation. On the procedure:
The young plants of bean are treated by spraying the active ingredient prepared as described above. Control plants are treated only with an aqueous solution of acetone/Dimethyl sulfoxide/Tween®. After 24 hours, the plants are contaminated by spraying the leaves with an aqueous suspension of Uromyces appendiculatus spores.

For data set [1], the system named is Blumeria graminis f. sp. hordei. The data set can be described thus: Example G: Blumeria test (barley)/preventive. As to conditions: 500 ppm of active ingredient, preventive, evaluated 7 days after inoculation. It is filed as in vivo. Summed up: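 Active compound formulated in N,N-dimethylacetamide with alkylaryl polyglycol ether emulsifier, diluted in water, and sprayed onto young barley plants at the stated application rate. Once the coating dried, plants were dusted with Blumeria graminis f. sp. hordei spores as a preventive test.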

In the next data set the test system is Fusarium culmorum. The data set can be described thus: Example H: Fusarium culmorum-test (wheat)/curative. The data set is classed as in vivo. As to conditions: 500 ppm of active ingredient, curative, evaluated 5 days after inoculation. Summed up: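 Curative wheat test: sandblast-wounded young plants inoculated with F. culmorum conidia, held 24 h at ~22 °C and ~100% RH, then sprayed with compound (DMA/emulsifier formulation diluted in water) at the stated rate. Kept under cloches at same conditions; efficacy scored 5 days post-inoculation (0% = untreated, 100% = no disease).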

The subject of the next data set is Fusarium graminearum. It is filed as in vivo. As to conditions: 500 ppm of active ingredient; barley, preventive; evaluated 5 days after inoculation.
Data set [2] has as its system Fusarium nivale (var. majus). The experiment in a line: Example J: Fusarium nivale (var. majus)-test (wheat)/preventive. As to conditions: 500 ppm of active ingredient, preventive, evaluated 5 days after inoculation. It is filed as in vivo. Summed up: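 Young wheat plants sprayed preventively with active compound (DMA/emulsifier concentrate diluted in water) at the stated rate, then sandblast-wounded and inoculated with conidia. Held in greenhouse at ~10 °C, ~100% RH. Efficacy scored 5 days post-inoculation: 0% = untreated control, 100% = no disease.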

The subject of a further data set is Leptosphaeria nodorum. The data set can be described thus: Example K: Leptosphaeria nodorum test (wheat)/preventive. It is filed as in vivo. As to conditions: 500 ppm of active ingredient, preventive, evaluated 8 days after inoculation. The gist of the method: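 Young wheat plants sprayed preventively with compound in N,N-dimethylacetamide/alkylaryl polyglycol ether emulsifier diluted with water at the stated application rate. Once the coating dried, plants were inoculated with a Leptosphaeria nodorum spore suspension.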

A further data set deals with Phakopsora pachyrhizi. The experiment in a line: Example L: Phakopsora test (soybeans)/preventive. The data set is classed as in vivo. As to conditions: 100 ppm of active ingredient, preventive, evaluated 7 days after inoculation.
Another data set relates to Pyricularia oryzae. The data set is classed as in vivo. As to conditions: 500 ppm of active ingredient; rice, preventive; evaluated 8 days after inoculation.
For another data set, the system named is Venturia inaequalis. The experiment in a line: Example O: Venturia test (apples)/preventive. The data set is classed as in vivo. As to conditions: 100 ppm of active ingredient, preventive, evaluated 10 days after inoculation. On the procedure: (§1) Solvent: 24.5 parts by weight of acetone • 24.5 parts by weight of dimethylacetamide Emulsifier: 1 part by weight of alkylaryl polyglycol ether To produce a suitable preparation of active compound, 1 part by weight of active compound is mixed with the stated amounts of solvent and emulsifier, and the concentrate is diluted with water to the desired concentration. To test for preventive activity, young plants are sprayed with the preparation of active compound at the stated rate of application.

The next data set concerns Podosphaera leucotricha. The experiment in a line: Example M: Podosphaera test (apples)/preventive. The data set is classed as in vivo. As to conditions: 100 ppm of active ingredient, preventive, evaluated 10 days after inoculation. On the procedure: as §1, with “application. After the spray coating has dried on, the plants are inoculated with an aqueous spore suspension of the causal agent of apple mildew (Podosphaera leucotricha).” for “application.”

With `OC(Cc1cc(F)ncc1Cl)(Cn1cncn1)C1(F)CC1` (racemic) [Example I-65], the Eff. % with Botrytis cinerea (500 ppm of active ingredient) turned out to be 100%; in the data set with Puccinia recondita (500 ppm of active ingredient) it was 98%; with Pyrenophora teres (500 ppm of active ingredient) it was 100%; in the data set with Septoria tritici (500 ppm of active ingredient), 100%; with Sphaerotheca fuliginea (500 ppm of active ingredient), 100%; with Uromyces appendiculatus (500 ppm of active ingredient), 100%. Further, the Eff. % (in [1]; with Fusarium culmorum; with Fusarium graminearum; in data set [2]; in the data set on Leptosphaeria nodorum; in the data set on Phakopsora pachyrhizi) was 100% in each case. Also, the Eff. % is given as 86% with Pyricularia oryzae and 100% in the data set on Venturia inaequalis. Moreover, the LogP (pH 2.7) is 1.77^[a].

On to `OC(Cc1cccnc1Cl)(Cn1cncn1)C1(Cl)CC1` (stereo not drawn) [Example I-3], for which the Eff. % in the data set with Botrytis cinerea (500 ppm of active ingredient) amounted to 100%; in the data set with Puccinia recondita (500 ppm of active ingredient), 98%; in the data set on Pyrenophora teres (500 ppm of active ingredient) it was 100%; in the data set with Septoria tritici (500 ppm of active ingredient), 100%; in the data set with Sphaerotheca fuliginea (100 ppm of active ingredient), 100%; in the data set with Uromyces appendiculatus (500 ppm of active ingredient), 100%. The Eff. % (in [1]; with Fusarium culmorum; in the data set with Fusarium graminearum; in data set [2]; in the data set on Leptosphaeria nodorum; in the data set on Phakopsora pachyrhizi) was 100% each time. The Eff. % is recorded as 100% in the data set on Podosphaera leucotricha, 100% with Pyricularia oryzae and 98% in the data set on Venturia inaequalis. Also, the LogP (pH 2.7) is 1.78^[a].

Regarding `OC(Cc1ccncc1Cl)(Cn1cncn1)C1(Cl)CC1` (stereo not drawn) [Example I-5, 2-(1-chlorocyclopropyl)-1-(3-chloropyridin-4-yl)-3-(1H-1,2,4-triazol-1-yl)propan-2-ol], the Eff. % came out at 100% with Botrytis cinerea (500 ppm of active ingredient); 100% in the data set on Puccinia recondita (500 ppm of active ingredient); 100% in the data set on Septoria tritici (500 ppm of active ingredient); 100% with Sphaerotheca fuliginea (500 ppm of active ingredient); 98% in the data set on Uromyces appendiculatus (500 ppm of active ingredient); 100% in data set [1]. Further, the Eff. % is recorded as 100% in the data set on Fusarium culmorum; 100% in the data set on Fusarium graminearum; 100% in [2]; 90% in the data set with Leptosphaeria nodorum; 100% with Phakopsora pachyrhizi; 100% in the data set with Podosphaera leucotricha. For the same compound, the Eff. % in the data set on Pyricularia oryzae was 75%; in the data set with Venturia inaequalis, 100%.

Take `OC(Cc1ccncc1Cl)(Cn1cncn1)C1(F)CC1` (stereo not drawn) [Example I-7]: the Eff. % is 100% in the data set with Botrytis cinerea (100 ppm of active ingredient); 94% in the data set on Puccinia recondita (100 ppm of active ingredient); 92% with Pyrenophora teres (100 ppm of active ingredient); 98% in the data set with Septoria tritici (100 ppm of active ingredient); 100% with Sphaerotheca fuliginea (100 ppm of active ingredient); 100% in the data set on Uromyces appendiculatus (100 ppm of active ingredient). Also, the Eff. % in data set [1] was 100%; in the data set with Fusarium culmorum, 100%; in the data set on Fusarium graminearum it was 100%; in data set [2] it was 100%; in the data set on Leptosphaeria nodorum, 100%; in the data set on Phakopsora pachyrhizi, 94%. In addition, the Eff. % is given as 100% in the data set with Pyricularia oryzae and 98% in the data set with Venturia inaequalis. Moreover, the LogP (method [a]: LC-MS at pH 2.7, 0.1% formic acid in water / acetonitrile gradient) was 1.29^[a].

For `OC(Cc1ccncc1F)(Cn1cncn1)C1(Cl)CC1` (stereo not drawn) [Example I-18], the Eff. % in the data set with Botrytis cinerea (100 ppm of active ingredient) is 100%; in the data set on Puccinia recondita (100 ppm of active ingredient), 94%; with Pyrenophora teres (100 ppm of active ingredient) it was 83%; in the data set with Septoria tritici (100 ppm of active ingredient), 98%; with Sphaerotheca fuliginea (100 ppm of active ingredient), 100%; in the data set with Uromyces appendiculatus (100 ppm of active ingredient) it was 97%. The Eff. % came to 100% in data set [1]; 100% in the data set on Fusarium culmorum; 100% in the data set on Fusarium graminearum; 100% in data set [2]; 100% in the data set on Leptosphaeria nodorum; 95% in the data set with Phakopsora pachyrhizi. In addition, the Eff. % with Podosphaera leucotricha is recorded as 97%; in the data set with Venturia inaequalis it was 100%. The LogP (pH 2.7) is 1.29^[a].

Take `OC(Cc1cccnc1F)(Cn1cncn1)C1(Cl)CC1` (stereo not drawn) [Example I-51]: the Eff. % came out at 100% with Botrytis cinerea (500 ppm of active ingredient); 98% with Puccinia recondita (500 ppm of active ingredient); 100% in the data set with Pyrenophora teres (500 ppm of active ingredient); 100% in the data set with Septoria tritici (500 ppm of active ingredient); 100% with Sphaerotheca fuliginea (500 ppm of active ingredient); 86% in the data set on Uromyces appendiculatus (500 ppm of active ingredient). Moreover, the Eff. % (in data set [1]; in the data set with Fusarium culmorum; in the data set on Fusarium graminearum; in [2]; with Leptosphaeria nodorum; in the data set on Phakopsora pachyrhizi) was 100% in each case. The Eff. % in the data set on Pyricularia oryzae is recorded as 80%; in the data set with Venturia inaequalis it was 94%. Moreover, where the note is “pH 2.7”, the LogP was 1.64^[a].

For `OC(Cc1ccc(Cl)nc1Cl)(Cn1cncn1)C1(Cl)CC1` (stereo not drawn) [Example I-53], the Eff. % with Botrytis cinerea (500 ppm of active ingredient) is 100%; with Puccinia recondita (500 ppm of active ingredient), 94%; in the data set on Pyrenophora teres (500 ppm of active ingredient), 86%; with Septoria tritici (500 ppm of active ingredient) it was 100%; in the data set with Sphaerotheca fuliginea (500 ppm of active ingredient) it was 100%; in the data set with Uromyces appendiculatus (500 ppm of active ingredient), 98%. Also, the Eff. % is listed as 100% in [1]; 90% in the data set with Fusarium culmorum; 100% in the data set on Fusarium graminearum; 100% in data set [2]; 100% in the data set with Leptosphaeria nodorum; 93% in the data set on Phakopsora pachyrhizi. The results for the Eff. % with Pyricularia oryzae and in the data set on Venturia inaequalis were 80% and 97%, respectively. In addition, the LogP (pH 2.7) was 2.55^[a].
